In ChEMBL document CHEMBL1201862, “PubChem BioAssay data set” (2004):
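Five concentrations, 48 hours, 96-well plates. GI50 marks 50% less growth.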 Calls of active or inactive are those of the source. Rule as the data show it: active = GI50 up to about 1.1 µM and inactive = higher.

Assays:
Test in all cases: NCI tumour cell line growth inhibition, 48 h
HCT-116 = system: HCT-116
SW-620 = system: SW-620
HOP-92 = system: HOP-92
MDA-N = system: MDA-N
HL-60 = system: HL-60
CCRF-CEM = system: CCRF-CEM
UO-31 = system: UO-31
NCI-H23 = system: NCI-H23
MOLT-4 = system: MOLT-4
SK-MEL-2 = system: SK-MEL-2
HOP-62 = system: HOP-62
OVCAR-5 = system: OVCAR-5
SK-MEL-28 = system: SK-MEL-28
MDA-MB-231 = system: MDA-MB-231
SF-539 = system: SF-539
HCC 2998 = system: HCC 2998
PC-3 = system: PC-3
M14 = system: M14
SR = system: SR
HCT-15 = system: HCT-15
UACC-257 = system: UACC-257
ACHN = system: ACHN
NCI/ADR-RES = system: NCI/ADR-RES
CAKI-1 = system: CAKI-1
NCI-H460 = system: NCI-H460
SF-268 = system: SF-268
SF-295 = system: SF-295
OVCAR-4 = system: OVCAR-4
SK-MEL-5 = system: SK-MEL-5
SK-OV-3 = system: SK-OV-3
OVCAR-8 = system: OVCAR-8
K562 = system: K562
HT-29 = system: HT-29
IGROV-1 = system: IGROV-1
786-0 = system: 786-0
RXF 393 = system: RXF 393
U-251 = system: U-251
MDA-MB-435 = system: MDA-MB-435
NCI-H226 = system: NCI-H226
KM12 = system: KM12
OVCAR-3 = system: OVCAR-3
EKVX = system: EKVX
T47D = system: T47D
MCF7 = system: MCF7
NCI-H522 = system: NCI-H522
LOX IMVI = system: LOX IMVI
A498 = system: A498
DU-145 = system: DU-145
Hs-578T = system: Hs-578T
RPMI-8226 = system: RPMI-8226
TK-10 = system: TK-10
SN12C = system: SN12C
A549 = system: A549
BT-549 = system: BT-549
Malme-3M = system: Malme-3M
COLO 205 = system: COLO 205
SNB-19 = system: SNB-19
UACC-62 = system: UACC-62
SNB-75 = system: SNB-75

## CC1=CC(=O)CC(C)(C)C1/C=C/C(C)=C/C=C/C(C)=C/C=C/C=C(C)/C=C/C=C(C)/C=C/C1=C(C)CC(O)CC1(C)C (stereo unspecified)
HCT-116
  GI50: 18.4 µM (inactive)
SW-620
  GI50: 15.7 µM (inactive)
HOP-92
  GI50: 27.3 µM (inactive)
MDA-N
  GI50: 29.9 µM (inactive)
HL-60
  GI50: 18.6 µM (inactive)
CCRF-CEM
  GI50: 24.9 µM (inactive)
UO-31
  GI50: 44.8 µM (inactive)
NCI-H23
  GI50: 27.9 µM (inactive)
MOLT-4
  GI50: 0.0853 µM (active)
SK-MEL-2
  GI50: > 100 µM (inactive)
HOP-62
  GI50: 47 µM (inactive)
OVCAR-5
  GI50: 57.3 µM (inactive)
SK-MEL-28
  GI50: 28.4 µM (inactive)
MDA-MB-231
  GI50: 64.3 µM (inactive)
SF-539
  GI50: 47.2 µM (inactive)
HCC 2998
  GI50: 23.8 µM (inactive)
PC-3
  GI50: 45.3 µM (inactive)
M14
  GI50: 33 µM (inactive)
SR
  GI50: 0.0422 µM (active)
HCT-15
  GI50: 24.1 µM
UACC-257
  GI50: 37.7 µM (inactive)
ACHN
  GI50: 28.6 µM (inactive)
NCI/ADR-RES
  GI50: 51.5 µM (inactive)
CAKI-1
  GI50: 39.3 µM (inactive)
NCI-H460
  GI50: 38.3 µM (inactive)
SF-268
  GI50: 50.9 µM (inactive)
SF-295
  GI50: 60.8 µM (inactive)
OVCAR-4
  GI50: 37.9 µM (inactive)
SK-MEL-5
  GI50: 33 µM (inactive)
SK-OV-3
  GI50: > 100 µM (inactive)
OVCAR-8
  GI50: 32.2 µM (inactive)
K562
  GI50: 0.745 µM (active)
HT-29
  GI50: 30.8 µM (inactive)
IGROV-1
  GI50: 39.1 µM (inactive)
786-0
  GI50: 22 µM (inactive)
RXF 393
  GI50: 20.1 µM (inactive)
U-251
  GI50: 37.8 µM (inactive)
MDA-MB-435
  GI50: 25 µM (inactive)
NCI-H226
  GI50: > 100 µM (inactive)
KM12
  GI50: 31.8 µM (inactive)
OVCAR-3
  GI50: 25.2 µM (inactive)
EKVX
  GI50: 57.3 µM (inactive)
T47D
  GI50: 30.9 µM (inactive)
MCF7
  GI50: 16.3 µM (inactive)
NCI-H522
  GI50: 23.2 µM (inactive)
LOX IMVI
  GI50: 31.3 µM (inactive)
A498
  GI50: 94.2 µM (inactive)
DU-145
  GI50: 24.4 µM (inactive)
Hs-578T
  GI50: 38.9 µM (inactive)
RPMI-8226
  GI50: 9.31 µM (inactive)
TK-10
  GI50: 50.2 µM (inactive)

## CC(C)(C)CNC(=O)NCn1cc(-c2ccccc2)nn1
HCT-116
  GI50: > 100 µM (inactive)
SW-620
  GI50: > 100 µM (inactive)
HOP-92
  GI50: > 100 µM (inactive)
HL-60
  GI50: > 100 µM (inactive)
CCRF-CEM
  GI50: > 100 µM (inactive)
SN12C
  GI50: > 100 µM (inactive)
NCI-H23
  GI50: > 100 µM (inactive)
A549
  GI50: > 100 µM (inactive)
MOLT-4
  GI50: > 100 µM (inactive)
SK-MEL-2
  GI50: > 100 µM (inactive)
HOP-62
  GI50: > 100 µM (inactive)
OVCAR-5
  GI50: > 100 µM (inactive)
SK-MEL-28
  GI50: > 100 µM (inactive)
MDA-MB-231
  GI50: > 100 µM (inactive)
SF-539
  GI50: > 100 µM (inactive)
HCC 2998
  GI50: > 100 µM (inactive)
PC-3
  GI50: > 100 µM (inactive)
M14
  GI50: > 100 µM (inactive)
SR
  GI50: > 100 µM (inactive)
HCT-15
  GI50: > 100 µM
UACC-257
  GI50: > 100 µM (inactive)
BT-549
  GI50: > 100 µM (inactive)
ACHN
  GI50: > 100 µM (inactive)
NCI/ADR-RES
  GI50: > 100 µM (inactive)
CAKI-1
  GI50: > 100 µM (inactive)
NCI-H460
  GI50: > 100 µM (inactive)
SF-268
  GI50: > 100 µM (inactive)
SF-295
  GI50: > 100 µM (inactive)
OVCAR-4
  GI50: > 10 µM (inactive)
SK-MEL-5
  GI50: > 100 µM (inactive)
Malme-3M
  GI50: > 100 µM (inactive)
OVCAR-8
  GI50: > 100 µM (inactive)
K562
  GI50: > 100 µM (inactive)
HT-29
  GI50: > 100 µM (inactive)
IGROV-1
  GI50: > 100 µM (inactive)
786-0
  GI50: > 100 µM (inactive)
COLO 205
  GI50: > 100 µM (inactive)
U-251
  GI50: > 100 µM (inactive)
NCI-H226
  GI50: 64.6 µM (inactive)
KM12
  GI50: > 100 µM (inactive)
SNB-19
  GI50: > 100 µM (inactive)
EKVX
  GI50: > 100 µM (inactive)
MCF7
  GI50: > 100 µM (inactive)
NCI-H522
  GI50: > 100 µM (inactive)
LOX IMVI
  GI50: > 100 µM (inactive)
DU-145
  GI50: > 100 µM (inactive)
RPMI-8226
  GI50: > 100 µM (inactive)
TK-10
  GI50: > 100 µM (inactive)

## N#C/C(=C/n1c(=S)[nH]c2ccccc21)C(N)=O
HCT-116
  GI50: > 100 µM (inactive)
SW-620
  GI50: > 100 µM (inactive)
HOP-92
  GI50: 11 µM (inactive)
MDA-N
  GI50: > 100 µM (inactive)
HL-60
  GI50: 16.7 µM (inactive)
CCRF-CEM
  GI50: > 100 µM (inactive)
SN12C
  GI50: > 100 µM (inactive)
UO-31
  GI50: > 100 µM (inactive)
NCI-H23
  GI50: > 100 µM (inactive)
A549
  GI50: > 100 µM (inactive)
MOLT-4
  GI50: > 100 µM (inactive)
SK-MEL-2
  GI50: > 100 µM (inactive)
HOP-62
  GI50: > 100 µM (inactive)
OVCAR-5
  GI50: > 100 µM (inactive)
SK-MEL-28
  GI50: > 100 µM (inactive)
MDA-MB-231
  GI50: > 100 µM (inactive)
SF-539
  GI50: > 100 µM (inactive)
HCC 2998
  GI50: > 100 µM (inactive)
UACC-62
  GI50: > 100 µM (inactive)
PC-3
  GI50: > 100 µM (inactive)
M14
  GI50: > 100 µM (inactive)
SR
  GI50: > 100 µM (inactive)
HCT-15
  GI50: > 100 µM
UACC-257
  GI50: > 100 µM (inactive)
ACHN
  GI50: > 100 µM (inactive)
NCI/ADR-RES
  GI50: > 100 µM (inactive)
CAKI-1
  GI50: > 100 µM (inactive)
NCI-H460
  GI50: > 100 µM (inactive)
SF-268
  GI50: > 100 µM (inactive)
SF-295
  GI50: > 100 µM (inactive)
OVCAR-4
  GI50: > 100 µM (inactive)
SK-MEL-5
  GI50: > 100 µM (inactive)
SK-OV-3
  GI50: > 100 µM (inactive)
Malme-3M
  GI50: > 100 µM (inactive)
OVCAR-8
  GI50: > 100 µM (inactive)
K562
  GI50: > 100 µM (inactive)
HT-29
  GI50: > 100 µM (inactive)
IGROV-1
  GI50: > 100 µM (inactive)
786-0
  GI50: > 100 µM (inactive)
COLO 205
  GI50: > 100 µM (inactive)
RXF 393
  GI50: > 100 µM (inactive)
U-251
  GI50: > 100 µM (inactive)
MDA-MB-435
  GI50: > 100 µM (inactive)
NCI-H226
  GI50: > 100 µM (inactive)
KM12
  GI50: > 100 µM (inactive)
OVCAR-3
  GI50: > 100 µM (inactive)
SNB-19
  GI50: > 100 µM (inactive)
EKVX
  GI50: > 100 µM (inactive)
T47D
  GI50: > 100 µM (inactive)
MCF7
  GI50: > 100 µM (inactive)
NCI-H522
  GI50: > 100 µM (inactive)
LOX IMVI
  GI50: > 100 µM (inactive)
SNB-75
  GI50: > 100 µM (inactive)
A498
  GI50: > 100 µM (inactive)
DU-145
  GI50: > 100 µM (inactive)
Hs-578T
  GI50: > 100 µM (inactive)
RPMI-8226
  GI50: > 100 µM (inactive)
